Test results from PMC9658817, “Design, Synthesis, and Mechanistic Study of 2-Pyridone-Bearing Phenylalanine Derivatives as Novel HIV Capsid Modulators” (Molecules, 2022).
≈ marks a conversion by molar mass, not a printed value. Like-named read-outs stand apart in the source and are kept apart here.

Columns and labels:
HIV-1 IIIB = assay: Anti-HIV-1 activity in MT-4 cells (MTT assay); format: cell-based; details: Human immunodeficiency virus 1, IIIB, MT4, 120 h, read-out: EC50 HIV-1 IIIB
Description: (§1) The antiviral activities and cytotoxicities of the target compounds were tested using MT-4 cells infected by HIV-1 IIIB or HIV-2 ROD. […] PF74 was utilized as the control drug in this assay.

MT-4 cells = assay: Cytotoxicity in mock-infected MT-4 cells (MTT assay); format: cell-based; details: uninfected (mock-infected) MT-4 cells, viability reduced by 50%
Description: as §1

HIV-2 ROD = assay: Anti-HIV-2 activity in MT-4 cells (MTT assay); format: cell-based; details: Human immunodeficiency virus 2, MT4, 120 h, read-out: EC50 HIV-2 ROD
Description: as §1

[1] = Water solubility assay in phosphate buffer (HPLC); format: physicochemical; details: for solubility: aqueous buffer, thermodynamic from solid, HPLC; for water solubility compared with PF74: in words, relative to PF74
Description: To test the changes in water solubility when two more amides or its mimics were introduced to the target compounds, which may lower the solubility of the target compounds, we performed water solubility assays (Table 2). […] Therefore, we cannot calculate its water solubility. It was illustrated that the solubility of compounds varied greatly under different pH. […] We weighed about 1mg of the compound, dissolved it with 1ml of methanol, and diluted it in gradient (twice each time) to obtain 10 concentrations. The peak area of the compound was tested by HPLC, and the peak area- concentration standard curve was drawn. In addition, about 1 mg, 0.6 mg and 0.3 mg of the compound were weighed and dissolved in 1 mL of pH 2, pH 7 and pH 7.4 phosphate buffer to obtain the saturated solution of the compound. HPLC was used to test the peak area under different pH, and the water solubility of the compound was obtained through the standard curve.

HIV = test system: HIV; parameters: method as in PMID 32612233; details: MT-4 cells; read-out: EC50 antiviral activity; cited from earlier work
[2] = Cytotoxicity in mock-infected MT-4 cells (MTT assay); format: cell-based; details: human, mock-infected (uninfected) MT-4 cells, uninfected (mock-infected) MT-4 cells, viability reduced by 50%
Description: as §1

[3] = MT-4 cells, 50% protection against HIV-induced cytopathic effect, MTT, five days after infection
[4] = phosphate buffer pH 2, saturated solution, read-out: Solubility pH 2
[5] = phosphate buffer pH 7, saturated solution, read-out: Solubility pH 7
[6] = phosphate buffer pH 7.4, saturated solution, read-out: Solubility pH 7.4

Row | Compound | EC50 (HIV-1 IIIB; [3]) | CC50 (MT-4 cells) | EC50 (HIV-2 ROD; [3]) | other results
1 | COc1ccc(N(C)C(=O)[C@H](Cc2cc(F)cc(F)c2)NC(=O)Cn2ccc(N)cc2=O)cc1 [FTC-2, (S)-2-(2-(4-amino-2-oxopyridin-1(2H)-yl)acetamido)-3-(3,5-difluorophenyl)-N-(4-methoxyphenyl)-N-methylpropanamide] | 5.36 ± 0.98 µM | > 266 µM | 15.6 ± 1.06 µM | solubility [1, 4]: 367 ± 58.4 µg/mL (≈ 779 µM); solubility [1, 5]: 261 ± 130 µg/mL (≈ 555 µM); solubility [1, 6]: 437 ± 51.9 µg/mL (≈ 928 µM); water solubility compared with PF74 [1]: improved by a factor of hundreds
2 | CC(C)(C#Cc1ccc(-c2ccc(Cl)c3c(NS(C)(=O)=O)nn(CC(F)(F)F)c23)c([C@H](Cc2cc(F)cc(F)c2)NC(=O)Cn2nc(C(F)(F)F)c3c2C(F)(F)[C@@H]2C[C@H]32)n1)S(C)(=O)=O [GS-6207] |  |  |  | EC50 (HIV): 0.000105 µM
3 | Cc1[nH]c2ccccc2c1CC(=O)NC(Cc1ccccc1)C(=O)N(C)c1ccccc1 (stereo not drawn) [PF74, reference compound] |  |  |  | EC50 (HIV-1 IIIB): 1.08 ± 0.24 µM; CC50 at 5 days [2]: > 294 µM; EC50 (HIV-2 ROD): 5.76 ± 2.14 µM; solubility [1, 4]: < 1.12 µg/mL; solubility [1, 5]: 1.44 ± 0.1 µg/mL (≈ 3.38 µM); solubility [1, 6]: 1.91 ± 0.56 µg/mL (≈ 4.49 µM)
4 | COc1ccc(N(C)C(=O)[C@H](Cc2ccccc2)NC(=O)Cn2ccc(N)cc2=O)cc1 [TC-2, (S)-2-(2-(4-amino-2-oxopyridin-1(2H)-yl)acetamido)-N-(4-methoxyphenyl)-N-methyl-3-phenylpropanamide] | 29.1 ± 4.23 µM | 261 ± 33.1 µM | 19.7 ± 6.42 µM | 
5 | COc1ccc(N(C)C(=O)[C@H](Cc2ccccc2)NC(=O)Cn2ccc(NC(=O)c3ccccc3)cc2=O)cc1 [TD-1a, (S)-N-(1-(2-((1-((4-methoxyphenyl)(methyl)amino)-1-oxo-3-phenylpropan-2-yl)amino)-2-oxoethyl)-2-oxo-1,2-dihydropyridin-4-yl)benzamide] | 16.8 ± 0.91 µM | 86.5 ± 29.2 µM | 4.86 ± 1.71 µM | solubility [1, 4]: 2.69 ± 0.52 µg/mL (≈ 4.99 µM); solubility [1, 5]: 5.07 ± 2.6 µg/mL (≈ 9.41 µM); solubility [1, 6]: 8.66 ± 0.41 µg/mL (≈ 16.1 µM); water solubility compared with PF74 [1]: moderately increased
6 | COc1ccc(N(C)C(=O)[C@H](Cc2ccccc2)NC(=O)Cn2ccc(NC(=O)c3ccc(F)cc3)cc2=O)cc1 [TD-1b, (S)-4-fluoro-N-(1-(2-((1-((4-methoxyphenyl)(methyl)amino)-1-oxo-3-phenylpropan-2-yl)amino)-2-oxoethyl)-2-oxo-1,2-dihydropyridin-4-yl)benzamide] | > 34.8 µM | 34.8 ± 5.75 µM | 16.2 ± 17.2 µM | 
7 | COc1ccc(N(C)C(=O)[C@H](Cc2ccccc2)NC(=O)Cn2ccc(NC(=O)c3cccc(F)c3)cc2=O)cc1 [TD-1c, (S)-3-fluoro-N-(1-(2-((1-((4-methoxyphenyl)(methyl)amino)-1-oxo-3-phenylpropan-2-yl)amino)-2-oxoethyl)-2-oxo-1,2-dihydropyridin-4-yl)benzamide] | 18.9 ± 2.66 µM | 61.6 ± 8.44 µM | 6.59 ± 1.63 µM | 
8 | COc1ccc(N(C)C(=O)[C@H](Cc2ccccc2)NC(=O)Cn2ccc(NC(=O)c3ccccc3F)cc2=O)cc1 [TD-1d, (S)-2-fluoro-N-(1-(2-((1-((4-methoxyphenyl)(methyl)amino)-1-oxo-3-phenylpropan-2-yl)amino)-2-oxoethyl)-2-oxo-1,2-dihydropyridin-4-yl)benzamide] | 17.9 ± 2.68 µM | 81.4 ± 22.7 µM | 7.92 ± 0.83 µM | 
9 | COc1ccc(N(C)C(=O)[C@H](Cc2ccccc2)NC(=O)Cn2ccc(NC(=O)c3ccc(Cl)cc3)cc2=O)cc1 [TD-1e, (S)-4-chloro-N-(1-(2-((1-((4-methoxyphenyl)(methyl)amino)-1-oxo-3-phenylpropan-2-yl)amino)-2-oxoethyl)-2-oxo-1,2-dihydropyridin-4-yl)benzamide] | > 25.5 µM | 25.5 ± 2.9 µM | > 25.5 µM | 
10 | COc1ccc(N(C)C(=O)[C@H](Cc2ccccc2)NC(=O)Cn2ccc(NC(=O)c3ccc(Br)cc3)cc2=O)cc1 [TD-1f, (S)-4-bromo-N-(1-(2-((1-((4-methoxyphenyl)(methyl)amino)-1-oxo-3-phenylpropan-2-yl)amino)-2-oxoethyl)-2-oxo-1,2-dihydropyridin-4-yl)benzamide] | > 23.5 µM | 23.5 ± 2.79 µM | > 23.5 µM | 
11 | COc1ccc(N(C)C(=O)[C@H](Cc2ccccc2)NC(=O)Cn2ccc(NC(=O)c3ccc(C)cc3)cc2=O)cc1 [TD-1g, (S)-N-(1-(2-((1-((4-methoxyphenyl)(methyl)amino)-1-oxo-3-phenylpropan-2-yl)amino)-2-oxoethyl)-2-oxo-1,2-dihydropyridin-4-yl)-4-methylbenzamide] | 25.6 ± 7.51 µM | 58.3 ± 4.85 µM | 20.5 ± 8.49 µM | 
12 | COc1ccc(C(=O)Nc2ccn(CC(=O)N[C@@H](Cc3ccccc3)C(=O)N(C)c3ccc(OC)cc3)c(=O)c2)cc1 [TD-1h, (S)-4-methoxy-N-(1-(2-((1-((4-methoxyphenyl)(methyl)amino)-1-oxo-3-phenylpropan-2-yl)amino)-2-oxoethyl)-2-oxo-1,2-dihydropyridin-4-yl)benzamide] | 29.6 ± 4.34 µM | 53.1 ± 5.12 µM | 10.7 ± 3.66 µM | 
13 | COC(=O)c1ccc(C(=O)Nc2ccn(CC(=O)N[C@@H](Cc3ccccc3)C(=O)N(C)c3ccc(OC)cc3)c(=O)c2)cc1 [TD-1i, methyl (S)-4-((1-(2-((1-((4-methoxyphenyl)(methyl)amino)-1-oxo-3-phenylpropan-2-yl)amino)-2-oxoethyl)-2-oxo-1,2-dihydropyridin-4-yl)carbamoyl)benzoate] | 19.1 ± 5.08 µM | 96.2 ± 19.8 µM | 15.2 ± 0.55 µM | 
14 | COc1ccc(N(C)C(=O)[C@H](Cc2ccccc2)NC(=O)Cn2ccc(NC(=O)c3ccc(C#N)cc3)cc2=O)cc1 [TD-1j, (S)-4-cyano-N-(1-(2-((1-((4-methoxyphenyl)(methyl)amino)-1-oxo-3-phenylpropan-2-yl)amino)-2-oxoethyl)-2-oxo-1,2-dihydropyridin-4-yl)benzamide] | 16.8 ± 0.78 µM | 137 ± 22.5 µM | 17.8 ± 2.79 µM | 
15 | COc1ccc(N(C)C(=O)[C@H](Cc2ccccc2)NC(=O)Cn2ccc(NC(=O)c3ccc4ccccc4c3)cc2=O)cc1 [TD-1k, (S)-N-(1-(2-((1-((4-methoxyphenyl)(methyl)amino)-1-oxo-3-phenylpropan-2-yl)amino)-2-oxoethyl)-2-oxo-1,2-dihydropyridin-4-yl)-2-naphthamide] | > 27.6 µM | 27.6 ± 3.18 µM | > 27.6 µM | 
16 | COc1ccc(N(C)C(=O)[C@H](Cc2ccccc2)NC(=O)Cn2ccc(NC(=O)c3ccc([N+](=O)[O-])cc3)cc2=O)cc1 [TD-1l, (S)-N-(1-(2-((1-((4-methoxyphenyl)(methyl)amino)-1-oxo-3-phenylpropan-2-yl)amino)-2-oxoethyl)-2-oxo-1,2-dihydropyridin-4-yl)-4-nitrobenzamide] | > 31.9 µM | 31.9 ± 1.73 µM | > 31.9 µM | 
17 | COc1ccc(N(C)C(=O)[C@H](Cc2ccccc2)NC(=O)Cn2ccc(NC(=O)c3ccc(N)cc3)cc2=O)cc1 [TD-1m, (S)-4-amino-N-(1-(2-((1-((4-methoxyphenyl)(methyl)amino)-1-oxo-3-phenylpropan-2-yl)amino)-2-oxoethyl)-2-oxo-1,2-dihydropyridin-4-yl)benzamide] | > 189 µM | 189 ± 2.19 µM | 17.1 ± 2.49 µM | 
